The values below are quoted from earlier work in patent US6380201B1, “Methods of treating or ameliorating the symptoms of common cold or allergic rhinitis with serotonin 5-HT1F agonists” (Eli Lilly and Company, priority 1997, dated 2002).

One series deals with T1, 5-HT1F receptor (Homo sapiens, UniProt P30939).
T1 sequence (P30939 1-366): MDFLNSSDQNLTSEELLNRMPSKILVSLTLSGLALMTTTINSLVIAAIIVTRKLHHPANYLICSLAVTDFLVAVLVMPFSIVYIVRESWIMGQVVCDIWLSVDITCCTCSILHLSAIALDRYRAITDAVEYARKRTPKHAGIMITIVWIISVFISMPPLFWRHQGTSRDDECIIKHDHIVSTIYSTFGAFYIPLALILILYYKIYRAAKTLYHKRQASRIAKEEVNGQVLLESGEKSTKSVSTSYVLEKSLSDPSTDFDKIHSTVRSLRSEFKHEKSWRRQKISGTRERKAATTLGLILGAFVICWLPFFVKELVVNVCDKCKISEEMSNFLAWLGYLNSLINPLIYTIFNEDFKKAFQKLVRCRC
The following applies: cited from earlier work.

The target in a further series is human 5-HT1D receptor (Homo sapiens, UniProt P28221). The following applies: cited from earlier work.
Sequence of human 5-HT1D receptor (P28221 whole entry): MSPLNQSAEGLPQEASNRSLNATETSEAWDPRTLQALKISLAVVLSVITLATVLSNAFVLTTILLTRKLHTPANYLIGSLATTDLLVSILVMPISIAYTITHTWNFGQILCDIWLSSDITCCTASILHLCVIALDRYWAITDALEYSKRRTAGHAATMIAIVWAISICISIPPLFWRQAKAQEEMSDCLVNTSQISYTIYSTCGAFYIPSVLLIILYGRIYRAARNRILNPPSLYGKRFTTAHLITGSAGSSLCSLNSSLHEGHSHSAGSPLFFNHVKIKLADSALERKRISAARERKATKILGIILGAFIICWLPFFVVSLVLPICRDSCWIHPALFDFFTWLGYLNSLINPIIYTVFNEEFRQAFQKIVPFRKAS

For `NCCc1c[nH]c2ccc(C(N)=O)cc12` [5-carboxamidotryptamine], the affinity result on 5-HT1F receptor was “low affinity”.

`CNS(=O)(=O)Cc1ccc2[nH]cc(CCN(C)C)c2c1` [Sumatriptan]: the affinity entry on human 5-HT1D receptor is recorded as “high affinity”; on 5-HT1F receptor, “show affinity”.
